Structures can show the parent of a compound that is named as a salt.
How the values were obtained:
[1] = system: osteoclasts in ovariectomized rats; assay: Osteoclast numbers in ovariectomized rats (tibia histomorphometry); format: in vivo, rat; conditions: for osteoclast numbers: 5 weeks
Description: Rats were ovariectomized according to the standard protocol and were administered orally with various doses of atorvastatin (2.5, 5, and 10 mg/kg body weight) for 5 weeks. Tibiae were analyzed for osteoclast number by histomorphometry. Ethinyl estradiol (EE) (0.4 mg/kg), a known bone protective agent, was used as a positive control.
Ovariectomy-induced bone loss in rats is an established model of osteoporosis, wherein estrogen insufficiency leads to increased osteoclastogenesis, possibly due to enhanced cytokine production. To test whether statins decrease bone resorption in vivo, ovariectomized rats were given orally various doses of atorvastatin (2.5, 5, or 10 mg/kg body weight) for 5 weeks. At the end of the study, the animals were sacrificed, and histomorphometric analysis was performed on tibia obtained from the animals.
The rats were ovariectomized according to the standard protocol. Briefly, after anesthesia the rats were cleaned with antiseptic solution. A small incision was made on the back of the animal, and the ovaries were located carefully underneath the fat tissue. After proper clamping, ovaries were removed with a scalpel blade. Also, the fallopian tube with the uterine horn was sealed by electrocautery. Later, the skin incision was closed using wound clips. After recovery from the surgery, animals were randomized into 6 groups of 8 animals each (sham operated, OVX, OVX+ atorvastatin 2.5, 5, 10 mg/kg body weight and OVX+ ethinyl estradiol) and dosed with various concentrations of atorvastatin and vehicle control every day for a period of 5 weeks.
Histomorphometric analysis was performed using decalcified sections of the proximal tibia for cancellous bone and undecalcified sections for cortical bone. Briefly, tibiae were decalcified using 10% ethylene diaminetetraacetic acid (EDTA), followed by […] in ascending concentrations of ethanol and embedded in glycol methacrylate (GMA) resin. The specimens were sectioned at 5 to 10 μm and stained with TRAP and counter stained with methyl green for determination of cellular parameters. Bone histomorphometry was performed using an OsteoMeasure image analysis system connected via a video system to a suitable light microscope.

RAW 264.7 cells = assay: RANKL-induced osteoclastogenesis in RAW 264.7 cells (TRAP staining); format: cell-based
Description: Raw cells (2000/well) were stimulated with RANKL (50 ng/mL)±atorvastatin and S,S-enantiomer of atorvastatin for 5 days and TRAP staining was performed at the end of Day 5 and the data is expressed as % inhibition of number of TRAP-positive cells compared to control.
RAW cells were plated at a density of 2000 cells/well in a 48-well plate and cultured overnight in alpha-MEM medium containing antibiotics. Cells were treated with either RANKL (50 ng/mL)±atorvastatin or the S,S-enantiomer of atorvastatin (10, 1, and 0.01 μM) for 5 days and stained for TRAP enzyme. Purple stained cells with three or more nuclei were counted under the microscope and represented as % inhibition of osteoclastogenesis compared to control cells.
RAW cells were cultured in α-MEM containing 10% FBS, 100 IU penicillin, 100 μg/mL of streptomycin. Cells were plated at a density of 2000 cells/well in a 48-well plate. After overnight incubation, the cells were stimulated with RANKL (50 ng/mL)±atorvastatin, S,S-enantiomer of atorvastatin or OPG for 5 days and stained for TRAP at the end of Day 5.
(§1) After initial wash with 1×PBS, the cells were fixed for 30 seconds using acetone based fixing solution containing acetone, citric acid and 37% formaldehyde. After washing twice with distilled water that was prewarmed to 37° C., the cells were incubated in acetate buffer containing naphthol AS-B1 and Fast Garnet GBC solution for 45 minutes at 37° C. TRAP-positive cells are typically brown in color when viewed under the microscope. The total number of TRAP-positive cells with 3 or more nuclei in each well were counted. TRAP activity is a phenotypic marker of mature osteoclasts.

[2] = system: primary murine bone marrow cell cultures; assay: RANKL-induced osteoclastogenesis in bone marrow cell cultures (TRAP staining); format: cell-based, mouse; conditions: for number of TRAP-positive cells formed: added 2 days post RANKL stimulation (5 days after isolation)
Description: Bone marrow cells were cultured with 100 ng/mL of M-CSF for 3 days. The cells were further cultured for 5 more days with either atorvastatin, its S,S-enantiomer or osteoprotegerin (OPG) in the presence of RANKL and M-CSF. Cells were then fixed and stained for TRAP. […] The data shown are mean ±SD (n=4 wells/treatment).
Bone marrow cells treated with M-CSF for 3 days were stimulated with RANKL as well as atorvastatin (0.01 nM, […], and 1 μM), its S,S-enantiomer or OPG. In some experiments atorvastatin was added 2 days post RANKL stimulation (5 days after isolation). On Day 8 postisolation, cells were fixed and stained for TRAP. TRAP-positive multinucleated cells were counted and represented. The data shown are mean of ±SD (n=4 wells/treatment).
Bone marrow cells were cultured in the presence of 100 ng/mL of recombinant murine M-CSF for 3 days after isolation. The cells were then stimulated with murine RANKL (100 ng/mL) in the presence of various doses of atorvastatin (0.01 nM, 1 nM, and 1 μM), S,S-enantiomer of atorvastatin, or osteoprotegerin (OPG) and further cultured for 5 more days and stained for TRAP activity (see FIG. 1).
Osteoclastogenesis involves a series of events which include differentiation, proliferation, activation, and fusion to form multinucleated cells that are capable of resorbing bone. To examine the stage at which atorvastatin inhibits osteoclastogenesis, atorvastatin was added at various times to mouse bone marrow cells in the presence of M-CSF and RANKL.
Briefly, after removing the femur aseptically, the adherent soft tissue was separated from the bone. Using a syringe and a needle, the marrow was flushed using alpha minimum essential medium (α-MEM). Osteoclasts were obtained by culturing bone marrow cells (0.15×10^6 cells/well) in α-MEM containing 10% fetal bovine serum (FBS), 100 IU penicillin, 100 μg/mL of streptomycin and 100 ng/mL of recombinant murine M-CSF for 3 days in 48-well plates. The osteoclasts thus obtained were further cultured with RANKL±atorvastatin, S,S-enantiomer of atorvastatin or osteoprotegerin (OPG), for 5 days. […] In some experiments, the compounds were added on Day 5 postisolation.
as §1, with “After” for “After initial wash with 1×PBS, the cells were fixed for 30 seconds using acetone based fixing solution containing acetone, citric acid and 37% formaldehyde. After”

[3] = normal and ovariectomized (OVX) rats; cited from earlier work
[4] = system: osteoblast-osteoclast cocultures; conditions: 10 μM; cited from earlier work

In the case of CC(C)c1c(C(=O)Nc2ccccc2)c(-c2ccccc2)c(-c2ccc(F)cc2)n1CC[C@@H](O)C[C@@H](O)CC(=O)O [atorvastatin, [R-(R*,R*)]-2-(4-fluorophenyl)-β,δ-dihydroxy-5-(1-methylethyl)-3-phenyl-4-[(phenylamino)carbonyl]-1H-pyrrole-1-heptanoic acid calcium salt (2:1) trihydrate], the osteoclast numbers ([1]; 5 mg/kg orally, ovariectomized rats) is reported as “significantly decreased”, the osteoclast numbers ([1]; 10 mg/kg orally, ovariectomized rats) is reported as “significantly decreased” and the “decrease of osteoclast formation compared with ethinyl estradiol” value ([1]; both 5 and 10 mg/kg doses, ethinyl estradiol positive control) is reported as “more effective”. For the same molecule, the “number of osteoclasts formed” value ([1]; daily oral 2.5-10 mg/kg body weight, 5-week period, ovariectomized rats) was “significantly decreased”, the “number of TRAP-positive, multinucleated cells” value (RAW 264.7 cells; 0.01 nM to 1 μM) was “significantly reduced” and the inhibition at 0.01 µM (RAW 264.7 cells; Mus musculus, RAW264.7, 120 h, 0.01 micromolar, 5 days, RANKL 50 ng/mL, read-out: % inhibition of RANKL-induced multinucleated cell formation) was roughly 80%. The IC50 (RAW 264.7 cells; Mus musculus, RAW264.7, RAW cells, read-out: IC50, number of TRAP-positive, multinucleated cells) was 170 nM, the “number of TRAP-positive, multinucleated cells” value ([2]; 0.01 nM to 1 μM) was “significantly reduced” and the IC50 ([2]; Mus musculus, primary murine bone marrow cell cultures, read-out: IC50, number of TRAP-positive, multinucleated cells) was 0.43 nM. For the same molecule, the “number of TRAP-positive cells formed” value [2] was “able to block” and the “effect when added on Day 5 compared with Day 3 postisolation” value ([2]; time course) was “much more pronounced”.

For CC[C@H](C)C(=O)O[C@H]1C[C@@H](C)C=C2C=C[C@H](C)[C@H](CC[C@@H]3C[C@@H](O)CC(=O)O3)[C@H]21 [lovastatin], the “increase in total bone area compared to BMP-2 or b-FGF” value [3] is given as “greater dose-dependent increase” and the “tartrate-resistant acid phosphatase (TRAP) activity” value [4] is given as “inhibits”.

With “(3S,5S)-7-[2-(4-fluorophenyl)-5-isopropyl-3-phenyl-4-phenylcarbamoyl-pyrrol-1-yl]-3,5-dihydroxy-heptanoic acid calcium salt (2:1) [S,S-enantiomer of atorvastatin]” the “% inhibition of RANKL-induced multinucleated cell formation, compared with atorvastatin” value (RAW 264.7 cells; 10, 1, and 0.01 μM, 5 days, RANKL 50 ng/mL) was “significantly less % inhibition” and the “number of TRAP-positive cells formed” value [2] was “no differences were observed”.

B1: osteoprotegerin (protein, UniProt O00300 22-401, looked up)
Tumor necrosis factor …: ETFPPKYLHYDEETSHQLLCDKCPPGTYLKQHCTAKWKTVCAPCPDHYYTDSWHTSDECLYCSPVCKELQYVKQECNRTHNRVCECKEGRYLEIEFCLKHRSCPPGFGVVQAGTPERNTVCKRCPDGFFSNETSSKAPCRKHTNCSVFGLLLTQKGNATHDNICSGNSESTQKCGIDVTLCEEAFFRFAVPTKFTPNWLSVLVDNLPGTKVNAESVERIKRQHSSQEQTFQLLKLWKHQNKDQDIVKKIIQDIDLCENSVQRHIGHANLTFEQLRSLMESLPGKKVGAEDIEKTIKACKPSDQILKLLSLWRIKNGDQDTLKGLMHALKHSKTYHFPKTVTQSLKKTIRFLHSFTMYKLYQKLFLEMIGNQVQSVKISCL
notes: soluble decoy receptor for RANKL
For B1, the “number of TRAP-positive multinucleated cells formed by RANKL” value ([2]; 50 ng/mL added simultaneously with RANKL) was “completely inhibited”.
